Tests used:
[1] = test system: Magel2 KO neonates; assay: Injection of oxytocin or vasopressin in Magel2 KO neonates: rescue of feeding and survival; assay type: in vivo, mouse
Method: (§1) Three to 5 hours after delivery, wild type pups or pups issued from a cross between an heterozygote (+/−) male with wild type females were temporally removed (10 min) from their mother, weighted and given a single s.c. (in the ventral region at the level of floating ribs) injection (20 μl) of isotonic saline or 2 μg oxytocin (Phoenix Pharmaceuticals. Inc., Catalog No. 051-01) dissolved in isotonic saline (20 μl). […] Following the same protocol, we injected vasopressin (Phoenix Pharmaceuticals. Inc., Catalog No. 065-07) at different doses. At P2, pups were scarified to be genotyped.
The results obtained with the injection of SSR 126768A OTA let us think that we might restore a normal feeding behaviour in Magel2 KO newborns with an OT injection just after birth. Early neonatal manipulation of OT was reported in the literature without alterations of the postnatal development (Cushing, B. S., et Al., 2003; Yamamoto, Y., et al., 2004; Saito, O., et Al., 2007). Initially, 28 wild type newborns were injected with an isotonic saline (20 μl) and 4 of them died at P1. Another cohort of 28 wild type newborns, […] on hypothalamic nuclei one hour after the injection (Cushing, B. S., et Al., 2003; Yamamoto, Y., et al., 2004). We then decided to inject 2 μg of OT in Magel2 KO and wild type newborns, 3 to 5 hours after birth, the time when wild type newborns started to suckle but not the mutant neonates. […] The level of lethality is similar after an injection of saline solution (4/28 dead pups) or oxytocin (3/28 dead pups) and is in the range of lethality normally observed in wild type cohorts. In a second step, ten litters including a total of 37 wild type and 40 Magel2 KO neonates, were injected with an oxytocin solution. At P2, we observed that 95% (35/37) of wild type and 93% (37/40) of Magel2 mutant newborns survived with milk previously detected in their stomach at P1. In parallel, we controlled that the rescue of Magel2 KO neonates was specifically due to the oxytocin injection and not to the injection stress and/or handling of neonates. […]

[2] = test system: wild type newborns; assay: Injection of oxytocin in wild type neonates: lethality and survival; assay type: in vivo, mouse
Method: as §1
The results obtained with the injection of SSR 126768A OTA let us think that we might restore a normal feeding behaviour in Magel2 KO newborns with an OT injection just after birth. Early neonatal manipulation of OT was reported in the literature without alterations of the postnatal development (Cushing, B. S., et Al., 2003; Yamamoto, Y., et al., 2004; Saito, O., et Al., 2007). Initially, 28 wild type newborns were injected with an isotonic saline (20 μl) and 4 of them died at P1. Another cohort of 28 wild type newborns, […] on hypothalamic nuclei one hour after the injection (Cushing, B. S., et Al., 2003; Yamamoto, Y., et al., 2004). […] At P2, we observed that 95% (35/37) of wild type and 93% (37/40) of Magel2 mutant newborns survived with milk previously detected in their stomach at P1. […]

[3] = test system: adult patients with PWS; assay: Tolerance in the clinical pilot study; assay type: in vivo, human; settings: single intranasal 24 UI
Source text: The inventors designed a double-blind randomised, placebo-controlled pilot study (ClinicalTrials.gov Identifier: NCT01038570) to be conducted in a dedicated PWS centre, where patients are regularly admitted for one month and live in a controlled environment. Patients know they have no free access to food but no doubt about the time and the content of meals. For each stay, 16 patients with PWS are admitted and take part in daily planned occupational and physical group activities. They also receive medical care as needed and psychological support. The 24 patients included in this study (16 females, 8 males, median age 28.5 years [18.7 to 43.6], median BMI 43 kg/m2 [19.4 to 67.4]) were stratified on gender and IQ (median IQ=51 [45 to 75]). […] Patients as well as parents or caregivers gave their written consent prior to entering the study. Exclusion criteria were an abnormal ECG and other severe cardiovascular problems. Patients were well known to the team. Each pair of patients of the same gender and same IQ range was evaluated the same day. The two patients of the pair received either OT or placebo in a double-blind randomisation. Patients were included in the study over the course of three series of stays.
Each patient received a single intranasal administration of either placebo (saline solution) or OT (Syntocinon®/-Spray, Novartis, Basel, Switzerland) with three puffs per nostril (24 UI). The dose of 24 UI is the most frequently reported in the literature. […] This nurse knew neither the patients nor the study.

With CC[C@H](C)[C@@H]1NC(=O)[C@H](Cc2ccc(O)cc2)NC(=O)[C@@H](N)CSSC[C@@H](C(=O)N2CCC[C@H]2C(=O)N[C@@H](CC(C)C)C(=O)NCC(N)=O)NC(=O)[C@H](CC(N)=O)NC(=O)[C@H](CCC(N)=O)NC1=O [oxytocin] the “newborns survived at P2 with milk in stomach at P1” value ([1]; Magel2 mutant, 2 μg oxytocin s.c. 3 to 5 hours after birth, vehicle lethality 48.5% at P1) was 93%, the “rescue of the death rate due to the feeding deficit” value ([1]; one single injection, 3-5 hours after birth) was “efficiently rescue the death rate” and the level of lethality ([2]; s.c. oxytocin 2 μg in 20 μl NaCl 0.9%, wild type pups n=28, saline 4/28) was 3/28. The “newborns survived at P2 with milk in stomach at P1” value ([2]; wild type, 2 μg oxytocin s.c. 3 to 5 hours after birth) was 95%, the Tolerance [3] was “excellent” and the “adverse event during the study” value [3] was “No adverse event”. For the same compound, the “effect on electrocardiogram and PSA” value [3] was “no effect”.
